Like-named read-outs stand apart in the source and are kept apart here.
Tests used:
Type in all cases: biochemical
FGFR3 = FGFR3 (Homo sapiens, UniProt P22607); assay: Activity against various protein tyrosine kinases: FGFR3; settings: for inhibition at 0.01 µM: 10 nM
Method: (§1) Using techniques know those of ordinary skill in the art, compounds were tested for activity against various protein tyrosine kinases.

INSR = INSR (Homo sapiens, UniProt P06213); assay: Activity against various protein tyrosine kinases: INSR; settings: for inhibition at 0.01 µM: 10 nM
Chain of INSR (P06213 28-1382, species assumed): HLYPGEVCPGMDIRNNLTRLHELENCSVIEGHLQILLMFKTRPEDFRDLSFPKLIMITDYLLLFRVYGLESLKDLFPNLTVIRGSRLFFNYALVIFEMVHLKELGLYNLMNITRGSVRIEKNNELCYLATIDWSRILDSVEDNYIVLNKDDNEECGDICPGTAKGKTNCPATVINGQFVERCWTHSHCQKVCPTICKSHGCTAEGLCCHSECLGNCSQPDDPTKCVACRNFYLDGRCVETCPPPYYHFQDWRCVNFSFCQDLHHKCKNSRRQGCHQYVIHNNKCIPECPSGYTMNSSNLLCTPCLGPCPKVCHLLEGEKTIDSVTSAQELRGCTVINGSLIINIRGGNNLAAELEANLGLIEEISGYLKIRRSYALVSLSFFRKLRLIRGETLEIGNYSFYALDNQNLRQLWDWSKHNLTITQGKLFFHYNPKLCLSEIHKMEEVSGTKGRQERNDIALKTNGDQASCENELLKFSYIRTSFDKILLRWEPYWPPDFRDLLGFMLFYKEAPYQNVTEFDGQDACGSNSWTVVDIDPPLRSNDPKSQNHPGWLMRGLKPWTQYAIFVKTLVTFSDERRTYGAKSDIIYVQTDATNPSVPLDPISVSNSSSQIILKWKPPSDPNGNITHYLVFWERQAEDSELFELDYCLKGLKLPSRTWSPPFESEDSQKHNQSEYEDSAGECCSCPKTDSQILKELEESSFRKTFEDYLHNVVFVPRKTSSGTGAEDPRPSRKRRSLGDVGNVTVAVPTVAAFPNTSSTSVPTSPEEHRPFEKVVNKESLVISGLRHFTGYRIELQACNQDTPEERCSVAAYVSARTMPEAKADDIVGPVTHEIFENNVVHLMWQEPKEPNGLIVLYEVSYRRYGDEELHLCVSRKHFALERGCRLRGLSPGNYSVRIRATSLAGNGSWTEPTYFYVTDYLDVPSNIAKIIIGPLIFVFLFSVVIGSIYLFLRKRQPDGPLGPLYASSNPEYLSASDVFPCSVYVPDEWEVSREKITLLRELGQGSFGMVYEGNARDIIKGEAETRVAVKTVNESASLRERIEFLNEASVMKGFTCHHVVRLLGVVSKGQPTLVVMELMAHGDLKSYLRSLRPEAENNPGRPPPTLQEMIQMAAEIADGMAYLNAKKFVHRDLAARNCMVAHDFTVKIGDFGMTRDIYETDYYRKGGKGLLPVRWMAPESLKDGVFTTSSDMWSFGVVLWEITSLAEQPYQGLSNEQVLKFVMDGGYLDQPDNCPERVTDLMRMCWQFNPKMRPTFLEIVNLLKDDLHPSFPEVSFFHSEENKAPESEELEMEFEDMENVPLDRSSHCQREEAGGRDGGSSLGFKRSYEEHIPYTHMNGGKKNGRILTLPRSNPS
Method: as §1

MAPKAPK3 = MAPKAPK3 (Homo sapiens, UniProt Q16644); assay: Activity against various protein tyrosine kinases: MAPKAPK3; settings: for inhibition at 0.01 µM: 10 nM
Chain of MAPKAPK3 (Q16644 whole entry, species assumed): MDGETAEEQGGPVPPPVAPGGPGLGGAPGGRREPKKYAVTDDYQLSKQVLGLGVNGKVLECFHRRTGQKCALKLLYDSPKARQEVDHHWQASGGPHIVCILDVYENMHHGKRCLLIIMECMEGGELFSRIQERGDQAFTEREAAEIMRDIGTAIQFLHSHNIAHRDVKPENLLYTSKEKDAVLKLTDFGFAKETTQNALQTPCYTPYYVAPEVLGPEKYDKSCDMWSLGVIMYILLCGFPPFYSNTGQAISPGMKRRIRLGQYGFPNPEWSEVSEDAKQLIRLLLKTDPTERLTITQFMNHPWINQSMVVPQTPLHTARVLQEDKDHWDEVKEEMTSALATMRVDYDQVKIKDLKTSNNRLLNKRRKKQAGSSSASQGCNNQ
Method: as §1

ABL = ABL (Homo sapiens, UniProt P00519); assay: Activity against various protein tyrosine kinases: ABL; design: purchased MILLIPORE 14-529; settings: for inhibition at 0.01 µM: read-out: % Inhibition at 10 nM; for inhibition at 1 µM: read-out: % Inhibition at 1 μM
Chain of ABL (P00519 whole entry): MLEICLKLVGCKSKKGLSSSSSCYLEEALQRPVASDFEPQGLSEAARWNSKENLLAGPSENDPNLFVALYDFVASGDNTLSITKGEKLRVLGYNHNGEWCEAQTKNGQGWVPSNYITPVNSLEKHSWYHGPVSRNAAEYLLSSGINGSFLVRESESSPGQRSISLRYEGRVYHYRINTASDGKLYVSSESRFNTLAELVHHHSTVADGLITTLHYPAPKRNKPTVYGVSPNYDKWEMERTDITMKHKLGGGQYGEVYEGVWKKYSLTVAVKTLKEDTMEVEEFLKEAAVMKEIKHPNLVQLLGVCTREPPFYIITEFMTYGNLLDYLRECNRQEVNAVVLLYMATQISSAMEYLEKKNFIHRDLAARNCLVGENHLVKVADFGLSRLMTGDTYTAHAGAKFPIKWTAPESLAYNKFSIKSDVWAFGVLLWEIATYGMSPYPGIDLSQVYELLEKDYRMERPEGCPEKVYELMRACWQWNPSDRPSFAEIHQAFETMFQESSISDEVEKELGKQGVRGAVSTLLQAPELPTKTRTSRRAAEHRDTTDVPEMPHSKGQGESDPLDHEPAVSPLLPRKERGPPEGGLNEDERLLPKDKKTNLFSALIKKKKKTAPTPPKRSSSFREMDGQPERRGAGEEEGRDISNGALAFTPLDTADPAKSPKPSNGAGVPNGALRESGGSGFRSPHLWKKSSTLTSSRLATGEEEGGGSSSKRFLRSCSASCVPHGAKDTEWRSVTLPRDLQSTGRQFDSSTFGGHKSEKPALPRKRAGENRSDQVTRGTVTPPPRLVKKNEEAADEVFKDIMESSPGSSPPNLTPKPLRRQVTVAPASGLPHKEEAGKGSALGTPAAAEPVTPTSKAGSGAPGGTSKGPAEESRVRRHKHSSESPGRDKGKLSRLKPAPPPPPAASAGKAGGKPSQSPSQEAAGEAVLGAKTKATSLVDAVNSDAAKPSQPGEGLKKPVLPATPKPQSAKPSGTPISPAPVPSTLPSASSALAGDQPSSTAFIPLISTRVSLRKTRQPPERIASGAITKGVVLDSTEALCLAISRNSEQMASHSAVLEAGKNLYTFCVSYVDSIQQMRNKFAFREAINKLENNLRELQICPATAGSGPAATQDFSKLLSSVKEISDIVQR
Method: as §1

AurC = molecular target: T1, AurC (Homo sapiens, UniProt Q9UQB9); assay: Activity against various protein tyrosine kinases: AurC; settings: for inhibition at 0.01 µM: 10 nM
T1 sequence (Q9UQB9 1-309): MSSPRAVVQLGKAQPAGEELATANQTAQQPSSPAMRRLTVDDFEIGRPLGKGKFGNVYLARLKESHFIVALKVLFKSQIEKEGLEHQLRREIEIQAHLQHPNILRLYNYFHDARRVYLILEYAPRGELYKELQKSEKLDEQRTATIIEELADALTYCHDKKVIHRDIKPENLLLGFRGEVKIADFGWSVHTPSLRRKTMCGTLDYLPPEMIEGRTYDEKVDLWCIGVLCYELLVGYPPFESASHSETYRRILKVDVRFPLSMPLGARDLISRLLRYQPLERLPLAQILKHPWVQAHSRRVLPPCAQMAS
Method: as §1

PKG1-beta = molecular target: T2, PKG1-beta (Homo sapiens, UniProt Q13976); assay: Activity against various protein tyrosine kinases: PKG1-beta; settings: for inhibition at 0.01 µM: 10 nM
T2 sequence (Q13976 1-686 isoform Q13976-2): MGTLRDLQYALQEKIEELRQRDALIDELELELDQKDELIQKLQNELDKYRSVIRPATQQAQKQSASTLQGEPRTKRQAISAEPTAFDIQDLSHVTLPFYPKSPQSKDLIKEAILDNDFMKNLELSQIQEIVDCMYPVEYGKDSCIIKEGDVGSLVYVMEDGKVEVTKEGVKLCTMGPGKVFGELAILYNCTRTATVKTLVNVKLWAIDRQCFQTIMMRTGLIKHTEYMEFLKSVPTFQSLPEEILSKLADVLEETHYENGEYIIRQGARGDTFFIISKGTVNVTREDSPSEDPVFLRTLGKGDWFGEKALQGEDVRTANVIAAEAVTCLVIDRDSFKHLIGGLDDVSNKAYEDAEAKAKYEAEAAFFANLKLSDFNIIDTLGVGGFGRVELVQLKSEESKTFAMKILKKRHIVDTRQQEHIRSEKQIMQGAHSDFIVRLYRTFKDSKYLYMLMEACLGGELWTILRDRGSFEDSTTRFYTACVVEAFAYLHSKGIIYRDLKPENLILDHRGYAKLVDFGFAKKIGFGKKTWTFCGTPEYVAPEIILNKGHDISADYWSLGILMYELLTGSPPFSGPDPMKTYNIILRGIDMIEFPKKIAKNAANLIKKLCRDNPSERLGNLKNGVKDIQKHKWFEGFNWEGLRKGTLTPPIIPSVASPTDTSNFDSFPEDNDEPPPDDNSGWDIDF
Method: as §1

PDGFR_beta = PDGFR_beta (Homo sapiens, UniProt P09619); assay: Activity against various protein tyrosine kinases: PDGFR_beta; settings: for inhibition at 0.01 µM: 10 nM
Chain of PDGFR_beta (P09619 33-1106, species assumed): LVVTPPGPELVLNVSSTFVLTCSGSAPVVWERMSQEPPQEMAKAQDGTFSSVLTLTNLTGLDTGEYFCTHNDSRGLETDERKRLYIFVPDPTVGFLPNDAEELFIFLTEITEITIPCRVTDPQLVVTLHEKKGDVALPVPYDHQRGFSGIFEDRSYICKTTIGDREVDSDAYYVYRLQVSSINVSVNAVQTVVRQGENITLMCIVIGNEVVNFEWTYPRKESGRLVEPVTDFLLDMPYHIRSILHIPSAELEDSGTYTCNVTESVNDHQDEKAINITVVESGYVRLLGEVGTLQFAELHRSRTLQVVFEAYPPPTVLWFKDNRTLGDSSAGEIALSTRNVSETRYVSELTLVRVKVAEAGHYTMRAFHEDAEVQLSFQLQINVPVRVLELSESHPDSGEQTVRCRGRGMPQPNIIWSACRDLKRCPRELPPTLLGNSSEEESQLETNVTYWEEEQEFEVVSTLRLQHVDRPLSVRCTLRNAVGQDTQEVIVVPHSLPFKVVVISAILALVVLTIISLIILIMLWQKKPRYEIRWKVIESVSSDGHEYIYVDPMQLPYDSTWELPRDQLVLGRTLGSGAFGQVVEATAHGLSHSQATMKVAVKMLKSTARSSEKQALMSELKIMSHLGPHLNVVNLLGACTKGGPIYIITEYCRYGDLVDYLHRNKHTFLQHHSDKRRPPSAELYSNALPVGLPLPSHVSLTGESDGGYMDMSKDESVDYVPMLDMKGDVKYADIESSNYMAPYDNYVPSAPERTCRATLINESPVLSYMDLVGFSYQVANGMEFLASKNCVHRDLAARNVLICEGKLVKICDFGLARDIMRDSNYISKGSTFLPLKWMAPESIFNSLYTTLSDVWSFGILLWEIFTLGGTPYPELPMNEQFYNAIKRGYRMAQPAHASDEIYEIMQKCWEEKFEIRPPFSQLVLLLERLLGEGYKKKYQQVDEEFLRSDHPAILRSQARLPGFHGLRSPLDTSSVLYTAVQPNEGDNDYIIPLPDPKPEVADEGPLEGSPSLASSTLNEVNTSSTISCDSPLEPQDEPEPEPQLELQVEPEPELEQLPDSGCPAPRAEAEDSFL
Method: as §1

EGFR = EGFR (Homo sapiens, UniProt P00533); assay: Activity against various protein tyrosine kinases: EGFR; settings: for inhibition at 0.01 µM: 10 nM
Method: as §1

HCK = HCK (Homo sapiens, UniProt P08631); assay: Activity against various protein tyrosine kinases: HCK; settings: for inhibition at 0.01 µM: 10 nM
Method: as §1

MAPKAPK2 = MAPKAPK2 (Homo sapiens, UniProt P49137); assay: Activity against various protein tyrosine kinases: MAPKAPK2; settings: for inhibition at 0.01 µM: 10 nM
Chain of MAPKAPK2 (P49137 whole entry, species assumed): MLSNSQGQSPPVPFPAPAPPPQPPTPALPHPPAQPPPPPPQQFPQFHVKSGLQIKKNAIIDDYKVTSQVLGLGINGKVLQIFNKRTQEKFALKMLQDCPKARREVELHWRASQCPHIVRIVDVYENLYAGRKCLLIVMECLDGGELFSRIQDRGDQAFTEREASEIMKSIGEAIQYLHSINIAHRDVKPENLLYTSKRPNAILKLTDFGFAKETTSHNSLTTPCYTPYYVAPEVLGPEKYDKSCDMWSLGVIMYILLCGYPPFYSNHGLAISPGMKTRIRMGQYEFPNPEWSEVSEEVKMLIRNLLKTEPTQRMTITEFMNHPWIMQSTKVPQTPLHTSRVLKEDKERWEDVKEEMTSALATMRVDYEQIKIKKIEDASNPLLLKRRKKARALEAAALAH
Method: as §1

Flt3 (D835Y) = molecular target: T3, Flt3 (D835Y) (Homo sapiens, UniProt P36888, D835Y); assay: Activity against various protein tyrosine kinases: Flt3 (D835Y); settings: for inhibition at 0.01 µM: 10 nM
T3 sequence (P36888 27-993 D835Y): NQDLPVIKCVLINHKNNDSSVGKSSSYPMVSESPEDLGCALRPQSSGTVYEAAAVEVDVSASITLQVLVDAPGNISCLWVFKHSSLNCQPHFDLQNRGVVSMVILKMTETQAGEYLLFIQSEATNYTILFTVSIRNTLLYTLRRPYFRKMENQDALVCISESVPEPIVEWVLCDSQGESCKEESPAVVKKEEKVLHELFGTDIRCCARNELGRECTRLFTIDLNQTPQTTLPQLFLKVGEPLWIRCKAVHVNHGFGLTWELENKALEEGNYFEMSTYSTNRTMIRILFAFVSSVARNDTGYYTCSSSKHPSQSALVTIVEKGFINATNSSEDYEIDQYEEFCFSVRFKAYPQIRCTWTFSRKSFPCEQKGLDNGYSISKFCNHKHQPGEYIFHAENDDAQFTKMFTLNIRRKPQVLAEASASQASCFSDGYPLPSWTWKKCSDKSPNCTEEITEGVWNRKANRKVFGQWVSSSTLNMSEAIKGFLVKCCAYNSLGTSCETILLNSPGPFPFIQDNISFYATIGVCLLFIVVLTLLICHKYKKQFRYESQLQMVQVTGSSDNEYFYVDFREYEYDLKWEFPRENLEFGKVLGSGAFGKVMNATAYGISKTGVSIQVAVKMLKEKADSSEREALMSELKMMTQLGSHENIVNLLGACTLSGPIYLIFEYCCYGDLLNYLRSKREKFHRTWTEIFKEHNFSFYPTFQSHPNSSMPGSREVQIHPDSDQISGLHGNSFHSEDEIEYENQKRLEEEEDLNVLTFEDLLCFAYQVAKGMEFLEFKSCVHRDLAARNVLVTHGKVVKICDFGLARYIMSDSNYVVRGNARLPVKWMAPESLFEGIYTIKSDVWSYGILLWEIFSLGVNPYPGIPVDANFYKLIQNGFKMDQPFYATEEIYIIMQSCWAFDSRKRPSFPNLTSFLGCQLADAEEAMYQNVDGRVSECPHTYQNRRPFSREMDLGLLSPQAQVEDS
Method: as §1

RSK1 = RSK1 (Homo sapiens, UniProt Q15418); assay: Activity against various protein tyrosine kinases: RSK1; settings: for inhibition at 0.01 µM: 10 nM
Chain of RSK1 (Q15418 whole entry, species assumed): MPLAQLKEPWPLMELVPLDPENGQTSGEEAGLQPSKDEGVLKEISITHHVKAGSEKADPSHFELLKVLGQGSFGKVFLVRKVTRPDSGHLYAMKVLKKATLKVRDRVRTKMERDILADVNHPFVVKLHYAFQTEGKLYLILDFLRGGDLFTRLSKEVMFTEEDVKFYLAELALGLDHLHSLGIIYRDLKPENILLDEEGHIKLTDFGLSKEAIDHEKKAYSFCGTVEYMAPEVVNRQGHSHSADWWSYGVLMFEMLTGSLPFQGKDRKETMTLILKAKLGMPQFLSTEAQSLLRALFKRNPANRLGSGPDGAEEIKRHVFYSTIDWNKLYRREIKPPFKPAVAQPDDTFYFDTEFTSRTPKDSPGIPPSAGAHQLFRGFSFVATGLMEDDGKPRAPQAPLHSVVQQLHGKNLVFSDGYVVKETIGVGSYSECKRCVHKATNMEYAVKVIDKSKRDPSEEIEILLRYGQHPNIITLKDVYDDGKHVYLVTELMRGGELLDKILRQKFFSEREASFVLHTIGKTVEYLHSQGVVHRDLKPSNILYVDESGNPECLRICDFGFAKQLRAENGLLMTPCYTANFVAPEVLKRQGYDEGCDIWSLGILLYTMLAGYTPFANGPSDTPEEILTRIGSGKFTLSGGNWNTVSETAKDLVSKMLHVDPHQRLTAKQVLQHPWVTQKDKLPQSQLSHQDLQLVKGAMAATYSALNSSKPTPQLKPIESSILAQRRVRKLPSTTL
Method: as §1

BTK = BTK (Homo sapiens, UniProt Q06187); assay: Activity against various protein tyrosine kinases: BTK; settings: for inhibition at 0.01 µM: 10 nM
Method: as §1

| Structure (SMILES) | inhibition at 0.01 µM (FGFR3) [%] | inhibition at 1 µM (FGFR3) [%] | inhibition at 0.01 µM (INSR) [%] | inhibition at 1 µM (INSR) [%] | inhibition at 0.01 µM (MAPKAPK3) [%] | inhibition at 1 µM (MAPKAPK3) [%] | inhibition at 0.01 µM (AurC) [%] | inhibition at 1 µM (AurC) [%] | inhibition at 0.01 µM (PKG1-beta) [%] | inhibition at 1 µM (PKG1-beta) [%] | inhibition at 0.01 µM (PDGFR_beta) [%] | inhibition at 1 µM (PDGFR_beta) [%] | inhibition at 0.01 µM (EGFR) [%] | inhibition at 1 µM (EGFR) [%] | inhibition at 0.01 µM (HCK) [%] | inhibition at 1 µM (HCK) [%] | inhibition at 0.01 µM (MAPKAPK2) [%] | inhibition at 1 µM (MAPKAPK2) [%] | inhibition at 0.01 µM (Flt3 (D835Y)) [%] | inhibition at 1 µM (Flt3 (D835Y)) [%] | also measured |
| --- | --- | --- | --- | --- | --- | --- | --- | --- | --- | --- | --- | --- | --- | --- | --- | --- | --- | --- | --- | --- | --- |
| COCCOCCOCCNC(=O)OCCN1CCN(c2cc(Nc3ncc(C(=O)Nc4c(C)cccc4Cl)s3)nc(C)n2)CC1 [mPEG3-NHCOO-Dasatinib] | 3 | 11 | 1 | -1 | 5 | 3 | -1 | 0 | -2 | 0 | 48 | 99 | 3 | 76 | 98 | 98 | 1 | -1 | 6 | 10 | inhibition at 0.01 µM (ABL): 99%; inhibition at 1 µM (ABL): 99%; inhibition at 0.01 µM (RSK1): 2%; inhibition at 1 µM (RSK1): 0%; inhibition at 0.01 µM (BTK): 99%; inhibition at 1 µM (BTK): 100% |
| COCCOCCOCCOCCOCCOCCOCCNC(=O)OCCN1CCN(c2cc(Nc3ncc(C(=O)Nc4c(C)cccc4Cl)s3)nc(C)n2)CC1 [mPEG7-NHCOO-Dasatinib] | 2 | 10 | 2 | 3 | 1 | 0 | 0 | 2 | -3 | -3 | 60 | 100 | 6 | 62 | 98 | 99 | 3 | 7 | 3 | 7 | inhibition at 0.01 µM (ABL; ABL, 10 nM): 99%; inhibition at 1 µM (ABL; ABL, 1 μM): 99%; inhibition at 0.01 µM (RSK1): 0%; inhibition at 1 µM (RSK1): 4%; inhibition at 0.01 µM (BTK): 99%; inhibition at 1 µM (BTK): 100% |

— patent US20120094998A1, “Oligomer-Protein Tyrosine Kinase Inhibitor Conjugates” (Nektar Therapeutics, priority 2009, published 2012)
